Data from patent US20100003217A1, “Compounds and Pharmaceutical Compositions for the Treatment of Viral Infections” (priority 2008, published 2010).
Several values for one entry are separate records, joined by “and”; a condition that tells them apart may be missing. Equal entries are not always repeated.

Assays:
[1] = Stability in monkey liver microsomes; assay type: in vitro ADME; details: for % Residual Compound 1 / % Residual Compound 2: monkey liver microsomes 1 mg/mL; for NADPH-dependent metabolism: monkey liver microsomes; for % Residual compound following incubation with liver microsomes: monkey microsomes 1 mg/mL; for % Residual Compound 2: 15 min
Experimental: (§1) Disappearance of parent Compound 1 was used to evaluate the in vitro metabolism thereof. Relative levels of unchanged Compound 1 were measured by HPLC-UV method 1. Residual Compound 1 is reported as percent difference from time zero or control. The HPLC-UV system was as follows:
Incubations with liver microsomes or cytosol were conducted in a final volume of 0.1 mL per incubation time point. […] DMSO (final DMSO concentration was 0.1%) was incubated at 37° C. from 0-60 min with pooled microsomal protein (1.0 mg/mL), suspended in incubation buffer (0.1 M potassium phosphate, pH 7.4, 5 mM MgCl2, and 0.1 mM EDTA). The microsomal reaction was initiated by the addition of NADPH (3 mM final concentration). Incubations with (a) no protein or (b) no NADPH served as controls. Reactions were terminated by the addition of 0.2 mL of stop solution (acetonitrile). The samples were vortex-mixed for 30 sec and then centrifuged at 10,000×g for 10 min. The supernatant was dried using a Labconco CentriVap concentrator and the dry residue reconstituted in water, transferred to an HPLC glass vial and analyzed by HPLC-UV method 1 (described above).
(§2) Metabolic stability of the proposed metabolites was conducted by incubating the chemically synthesized standards Compound 2, Compound 4 and Compound 3 as described above for Compound 1. When possible, formation of Compound 5 was verified by incubating samples with alkaline phosphatase (10 U) for 60 min at 37° C.

[2] = Stability in human liver microsomes; assay type: in vitro ADME; details: for % Residual Compound 1 / % Residual Compound 2: human liver microsomes 1 mg/mL; for NADPH-dependent metabolism: human liver microsomes; for % Residual compound following incubation with liver microsomes: human microsomes 1 mg/mL; for % Residual Compound 2: 15 min
Experimental: as §1
Incubations with liver microsomes or cytosol were conducted in a final volume of 0.1 mL per incubation time point. […] The microsomal reaction was initiated by the addition of NADPH (3 mM final concentration). Incubations with (a) no protein or (b) no NADPH served as controls. Reactions were terminated by the addition of 0.2 mL of stop solution (acetonitrile). The samples were vortex-mixed for 30 sec and then centrifuged at 10,000×g for 10 min. The supernatant was dried using a Labconco CentriVap concentrator and the dry residue reconstituted in water, transferred to an HPLC glass vial and analyzed by HPLC-UV method 1 (described above).
as §2

[3] = Metabolite profile in rat urine; assay type: in vivo, male Sprague-Dawley rats; details: for Percent of Dose, Urine 0-24 h: after [14C]Compound 1; for % AD, estimated: from single animal HPLC distribution and mean % AD; for Total % AD, estimated / Total % AD: total of all collections; for % of total urinary excretion / Total % AD: group 1C (IV dose) urine
Experimental: Pooled urine samples were prepared for Groups 1C and 2C by mixing a fixed percent of the total volume for all four animals from the selected time points. For Group 1C, samples of the 1-, 2-, 6-, and 24-h collection intervals were pooled. For Group 2C, a pool of samples from all four animals was prepared for the 24 h collection intervals only. For 1-, 2-, and 6 h collection intervals, a urine sample of a single animal of Group 2A or 2B was used for analysis. All samples were brought to room temperature and vortexed briefly. The samples were diluted as necessary (2- to 20-fold) with appropriate aqueous mobile phase for the selected HPLC method. The pooled and diluted samples from the 24 h collection interval were centrifuged at 2040×g for 10 minutes. All other samples were analyzed without centrifugation. HPLC method 1 was used for HPLC profiling. Selected samples were analyzed by HPLC method 2 for comparison with the metabolite profile generated by microsomal and hepatocyte incubations (Examples 14 and 15) and with the metabolite profile of liver extracts.
Percent of the administered dose (% AD) for parent drug and each metabolite at each collection period=(% of the total radioactivity in the sample attributed to the metabolite)*(total radioactivity expressed as % of the administered dose, recovered during the corresponding collection period).
HPLC analyses of pooled urine samples of all time points were conducted for Group 1C. Metabolites R1, R2, R3, R4, R5, R6, R7 and R8 were characterized based on retention time.
For the PO dose group, a pooled urine sample from the 24-h collection time was analyzed. For 1-, 2-, and 6-h collection times, the majority of the samples had been used for radioanalysis. The remaining samples were insufficient for proportional pooling. Therefore, single animal samples of […] groups were used for HPLC profiling. Metabolites R^1, R^2, R^3, R^4, R^5, R^6, R^7 and R^8 were characterized based on retention time.
Table 50 contains data from single animal samples and pooled samples. To estimate overall distribution of urinary metabolites, it was assumed that the profile from a single animal is reflective of the overall average metabolite profile. Therefore, HPLC distribution data from single animals was used to calculate the percentage of administered dose excreted as various metabolites during the 1-, 2-, and 6-h collection intervals. Metabolites R1, R2, R3, R4, R5, R6, R7 and R8 were characterized based on retention time.

[4] = PO dose urine, 1 h collection, single animal (#15, Group 2A)
[5] = PO dose urine, 2 h collection, single animal (#20, Group 2B)
[6] = estimated profile table, group 2C (PO dose) urine, 24 h
[7] = estimated profile, group 2C (PO dose) urine
[8] = estimated profile, group 2C (PO dose) urine, 2 h
[9] = estimated profile, group 2C (PO dose) urine, 2 h, single animal % HPLC distribution
[10] = group 1C (IV dose) pooled urine, 1 h collection
[11] = group 1C (IV dose) pooled urine, 2 h collection
[12] = group 1C (IV dose) pooled urine, 6 h collection
[13] = group 1C (IV dose) pooled urine, 24 h collection
[14] = group 2C (PO dose) pooled urine, 24 h collection

CC(C)(CO)C(=O)SCCOP(=O)(NCc1ccccc1)OC[C@H]1O[C@@H](n2cnc3c(=O)[nH]c(N)nc32)[C@](C)(O)[C@@H]1O (mixture of isomers) [Compound 1, 3-hydroxy-2,2-dimethyl-thiopropionic acid S-(2-{[(2R,3R,4R,5R)-5-(2-amino-6-oxo-1,6-dihydro-purin-9-yl)-3,4-dihydroxy-4-methyl-tetrahydro-furan-2-ylmethoxy]-benzylamino-phosphoryloxy}-ethyl) ester]
% Residual Compound 1 ([1]; 10 μM, 0 min, NADPH): 100%
% Residual Compound 1 ([1]; 10 μM, 0 min, No Cofactor): 100%
% Residual Compound 1 ([1]; 10 μM, 30 min, NADPH): 0%
% Residual Compound 1 ([1]; 10 μM, 30 min, No Cofactor): 81%
% Residual Compound 1 ([1]; 10 μM, 60 min, NADPH): 0%
NADPH-dependent metabolism ([1]; NADPH, 30 min, 10 μM): 100%
% Residual Compound 1 ([2]; 10 μM, 0 min, NADPH): 100%
% Residual Compound 1 ([2]; 10 μM, 0 min, No Cofactor): 100%
% Residual Compound 1 ([2]; 10 μM, 30 min, NADPH): 52%
% Residual Compound 1 ([2]; 10 μM, 30 min, No Cofactor): 100%
% Residual Compound 1 ([2]; 10 μM, 60 min, NADPH): 34%
% Residual Compound 1 ([2]; 10 μM, 60 min, No Cofactor): 94%
NADPH-dependent metabolism ([2]; NADPH, 60 min, 10 μM): 66%
Total excretion (% AD), urine ([3]; IV (1C)): 26.1 % AD
Percent of Dose, Urine 0-24 h ([3]; IV): 26.1% of Dose
Percent of Dose, Urine 0-24 h ([3]; Oral): 0.02% of Dose
Total excretion (% AD), urine ([3]; PO (2C), urine data estimated): 0.02 % AD
% AD (percent of administered dose) [3, 4]: 0.06 % AD
% HPLC (percent of HPLC peak area in the sample extract) [3, 4]: 74.8%
% AD (percent of administered dose) [3, 5]: 0.01 % AD
% HPLC (percent of HPLC peak area in the sample extract) [3, 5]: 6.57%
% AD [3, 6]: 0.01 % AD
% HPLC (percent of HPLC peak area in the sample extract) [3, 6]: 0.30%
% of total urinary excretion, estimated [3, 7]: 0.73%
% AD, estimated ([3]; estimated profile, group 2C (PO dose) urine, 1 h): 0.01 % AD
% HPLC (percent of HPLC peak area in the sample extract) ([3]; estimated profile, group 2C (PO dose) urine, 1 h, single animal % HPLC distribution): 74.8%
% AD, estimated [3, 8]: 0.003 % AD
% HPLC (percent of HPLC peak area in the sample extract) [3, 9]: 6.57%
Total % AD, estimated [3, 7]: 0.02 % AD
% AD (percent of administered dose) [3, 10]: 21.39 % AD
% HPLC (percent of HPLC peak area in the sample extract) [3, 10]: 93.5%
% AD (percent of administered dose) [3, 11]: 2.50 % AD
% HPLC (percent of HPLC peak area in the sample extract) [3, 11]: 48.9%
% AD (percent of administered dose) [3, 12]: 0.71 % AD
% HPLC (percent of HPLC peak area in the sample extract) [3, 12]: 30.5%
% AD (percent of administered dose) [3, 13]: 1.51 % AD
% HPLC (percent of HPLC peak area in the sample extract) [3, 13]: 9.09%
% of total urinary excretion [3]: 55.6%
Total % AD [3]: 26.1 % AD
% AD (percent of administered dose) [3, 14]: 0.01 % AD
% HPLC (percent of HPLC peak area in the sample extract) [3, 14]: 0.30%
% of the total urinary excretion ([3]; rat urine, IV dose 50 mg/kg): 55.6%
urinary component, % of the administered dose (% AD) ([3]; rat urine, IV dose 50 mg/kg, 0-24 h, 50 mg/kg): 26.1 % AD and 26 % AD
urinary component, estimated % of the administered dose (% AD) ([3]; rat urine, PO dose 100 mg/kg, 0-24 h): 0.02 % AD
% of the total radioactivity eliminated via urine within one hour ([3]; rat urine, PO dose, 1-h time point): 74.8%
% of the total urinary excretion by 6 h ([3]; rat urine, PO dose, 6 h): 6.6%

CC(C)(CO)C(=O)SCCOP(N)(=O)OC[C@H]1O[C@@H](n2cnc3c(=O)[nH]c(N)nc32)[C@](C)(O)[C@@H]1O (mixture of isomers) [Compound 3, {9-[(2R)2-C-methyl-β-D-ribo-furanosyl]-guanin}-5′-yl-O-(hydroxy-tert-butyl-S-acyl-2-thioethyl) phosphoramidate]
NADPH-dependent metabolism ([1]; 60 min, 50 μM): 20-30%
% Residual compound following incubation with liver microsomes ([1]; 60 min, 50 μM, NADPH): 76%
% Residual compound following incubation with liver microsomes ([1]; 60 min, 50 μM, No Cofactor): 89%
NADPH-dependent metabolism ([2]; 60 min, 50 μM): 20-30%
% Residual compound following incubation with liver microsomes ([2]; 60 min, 50 μM, NADPH): 82%
% Residual compound following incubation with liver microsomes ([2]; 60 min, 50 μM, No Cofactor): 103%

C[C@@]1(O)[C@H](O)[C@@H](COP(=O)(O)NCc2ccccc2)O[C@H]1n1cnc2c(=O)[nH]c(N)nc21 [Compound 2, [(2R)-2-methyl-β-D-ribofuranosyl]guanine-N-benzylaminyl-5′-monophosphate]
% Residual Compound 2 ([1]; 10 μM, NADPH): 19%
% Residual Compound 2 ([1]; 10 μM, No Cofactor): 0%
% Residual Compound 2 ([2]; 10 μM, NADPH): 0%
% Residual Compound 2 ([2]; 10 μM, No Cofactor): 0%
Percent of Dose, Urine 0-24 h ([3]; IV): 0.76% of Dose
Percent of Dose, Urine 0-24 h ([3]; Oral): 0.001% of Dose
% AD (percent of administered dose) [3, 5]: 0.002 % AD
% HPLC (percent of HPLC peak area in the sample extract) [3, 5]: 1.81%
% of total urinary excretion, estimated [3, 7]: 0.03%
% AD, estimated [3, 8]: 0.001 % AD
% HPLC (percent of HPLC peak area in the sample extract) [3, 9]: 1.81%
Total % AD, estimated [3, 7]: 0.001 % AD
% AD (percent of administered dose) [3, 10]: 0.52 % AD
% HPLC (percent of HPLC peak area in the sample extract) [3, 10]: 2.29%
% AD (percent of administered dose) [3, 11]: 0.13 % AD
% HPLC (percent of HPLC peak area in the sample extract) [3, 11]: 2.57%
% AD (percent of administered dose) [3, 12]: 0.03 % AD
% HPLC (percent of HPLC peak area in the sample extract) [3, 12]: 1.40%
% AD (percent of administered dose) [3, 13]: 0.07 % AD
% HPLC (percent of HPLC peak area in the sample extract) [3, 13]: 0.45%
% of total urinary excretion [3]: 1.62%
Total % AD [3]: 0.76 % AD
